Laboratory results from patent US20240158392A1 (Janssen Biotech, Inc., priority 2021, published 2024).

Target: SIK2 (Homo sapiens, UniProt Q9H0K1)
Assay: SIK2 Enzymatic Assay High Version 2 (High ATP)
Type: biochemical
Conditions: not given
Outline: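 At room temperature, enzyme (6 nM, 2× final) was preincubated with compound for 30 min, then 6 mM ATP and 400 μM HDAC5tide (both 2× final) were added for 2 h. ADP formed was measured by ADP-Glo Max (2 h reagent, 1 h detection) using luminescence.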

Chain of SIK2 (Q9H0K1 whole entry, species assumed): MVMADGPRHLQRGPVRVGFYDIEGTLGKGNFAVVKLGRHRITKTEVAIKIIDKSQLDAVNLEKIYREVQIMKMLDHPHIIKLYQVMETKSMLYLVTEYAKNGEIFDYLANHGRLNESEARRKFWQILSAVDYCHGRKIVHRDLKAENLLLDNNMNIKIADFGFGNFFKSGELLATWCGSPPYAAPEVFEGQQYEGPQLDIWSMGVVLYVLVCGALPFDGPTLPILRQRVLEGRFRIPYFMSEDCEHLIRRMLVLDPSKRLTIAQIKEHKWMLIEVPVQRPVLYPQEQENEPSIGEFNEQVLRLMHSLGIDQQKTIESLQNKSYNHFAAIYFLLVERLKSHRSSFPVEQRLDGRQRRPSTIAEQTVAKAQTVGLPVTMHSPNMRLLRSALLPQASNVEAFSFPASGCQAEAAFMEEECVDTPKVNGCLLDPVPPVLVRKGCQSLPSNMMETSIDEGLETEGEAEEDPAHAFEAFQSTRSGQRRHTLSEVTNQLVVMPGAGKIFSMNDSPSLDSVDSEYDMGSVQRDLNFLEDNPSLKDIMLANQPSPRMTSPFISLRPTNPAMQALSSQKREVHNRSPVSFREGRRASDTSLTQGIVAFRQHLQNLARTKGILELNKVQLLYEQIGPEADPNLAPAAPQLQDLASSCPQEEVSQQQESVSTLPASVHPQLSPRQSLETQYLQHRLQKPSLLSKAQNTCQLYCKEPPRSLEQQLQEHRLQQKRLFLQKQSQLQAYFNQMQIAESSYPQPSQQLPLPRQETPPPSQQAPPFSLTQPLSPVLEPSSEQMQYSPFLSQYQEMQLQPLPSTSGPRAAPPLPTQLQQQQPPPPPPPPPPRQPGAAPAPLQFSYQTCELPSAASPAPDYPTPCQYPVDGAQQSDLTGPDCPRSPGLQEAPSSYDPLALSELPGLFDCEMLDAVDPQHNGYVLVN

Structure (SMILES) | IC50 [µM]
CC#Cc1cc(-c2ccn3nc(Nc4ccn(C)n4)cc3c2)c(O[C@H]2C[C@H]3COC[C@@H](C2)N3)cn1 [Example 438, N-(1-methylpyrazol-3-yl)-5-[5-[[(1S,5R)-3-oxa-9-azabicyclo[3.3.1]nonan-7-yl]oxy]-2-prop-1-ynyl-4-pyridyl]pyrazolo[1,5-a]pyridin-2-amine] | 0.0102
CC#Cc1cc(-c2ccn3nc(NC(=O)C4CC4)cc3c2)c(O[C@@H]2C[C@H]3COC[C@@H](C2)N3)cn1 [Example 439, N-[5-[5-[[(1S,5R)-3-oxa-9-azabicyclo[3.3.1]nonan-7-yl]oxy]-2-prop-1-ynyl-4-pyridyl]pyrazolo[1,5-a]pyridin-2-yl]cyclopropanecarboxamide] | 0.00103
CCN1CC[C@@H]1COc1cnc(C)cc1-c1ccn2nc(NC(=O)C3CC3)cc2c1 [Example 451, N-[5-[5-[[(2R)-1-ethylazetidin-2-yl]methoxy]-2-methyl-4-pyridyl]pyrazolo[1,5-a]pyridin-2-yl]cyclopropanecarboxamide] | 0.0182
Cc1cc(-c2ccn3nc(NC(=O)C4CC4)cc3c2)c(OC[C@H]2CCN2CC(F)(F)F)cn1 [Example 452, N-[5-[2-methyl-5-[[(2R)-1-(2,2,2-trifluoroethyl)azetidin-2-yl]methoxy]-4-pyridyl]pyrazolo[1,5-a]pyridin-2-yl]cyclopropanecarboxamide] | 0.015
Cc1cc(-c2ccn3nc(NC(=O)C4CC4)cc3c2)c(O[C@H]2C[C@H]3COC[C@@H](C2)N3C)cn1 [Example 460, N-[5-[2-methyl-5-[[(1S,5R)-9-methyl-3-oxa-9-azabicyclo[3.3.1]nonan-7-yl]oxy]-4-pyridyl]pyrazolo[1,5-a]pyridin-2-yl]cyclopropanecarboxamide] | 0.0413
[2H]C([2H])([2H])N1[C@@H]2COC[C@H]1C[C@@H](Oc1cnc(C)cc1-c1ccn3nc(NC(=O)C4CC4)cc3c1)C2 [Example 462, N-[5-[2-methyl-5-[[(1S,5R)-9-(trideuteriomethyl)-3-oxa-9-azabicyclo[3.3.1]nonan-7-yl]oxy]-4-pyridyl]pyrazolo[1,5-a]pyridin-2-yl]cyclopropanecarboxamide] | 0.00741
Cc1cc(-c2ccn3nc(NC(=O)[C@@H]4C[C@H]4C)cc3c2)c(O[C@@H]2[C@@H]3CO[C@H]2CN3)cn1 [Example 463, (1R,2R)-2-methyl-N-[5-[2-methyl-5-[[(1S,4S,7R)-2-oxa-5-azabicyclo[2.2.1]heptan-7-yl]oxy]-4-pyridyl]pyrazolo[1,5-a]pyridin-2-yl]cyclopropanecarboxamide] | 0.0107
Cc1cc(-c2ccn3nc(NC(=O)C4CC4)cc3c2)c(O[C@H]2C[C@@H](N)C2)cn1 [Example 464, N-(5-(5-((1s,3s)-3-aminocyclobutoxy)-2-methylpyridin-4-yl)pyrazolo[1,5-a]pyridin-2-yl)cyclopropanecarboxamide] | 0.0116
Cc1cc(-c2ccn3nc(NC(=O)C4CC4)cc3c2)c(OC[C@H]2CCN2C)cn1 [Example 468, N-[5-[2-methyl-5-[[(2R)-1-methylazetidin-2-yl]methoxy]-4-pyridyl]pyrazolo[1,5-a]pyridin-2-yl]cyclopropanecarboxamide] | 0.00813

Same assay, conditions: enzyme 6 nM, 6 mM ATP and 400 μM HDAC5tide (each 2× final concentration); 30 minutes pre-incubation, 2 hours; ADP-Glo Max luminescence; read-out: SIK2 high ATP IC50 (μM) (Test Example 2)

IC50 [µM] | Structure (SMILES)
0.00436 | CC#Cc1cc(-c2ccn3nc(NC(=O)C4CC4)cc3c2)c(OC[C@@H]2CNCCO2)cn1 [Example 443, N-[5-[5-[[(2S)-morpholin-2-yl]methoxy]-2-prop-1-ynyl-4-pyridyl]pyrazolo[1,5-a]pyridin-2-yl]cyclopropanecarboxamide]
0.0298 | Cc1cc(-c2ccn3nc(NC(=O)C4CC4)cc3c2)c(OCC2CN(CCF)C2)cn1 [Example 457, N-[5-[5-[[1-(2-fluoroethyl)azetidin-3-yl]methoxy]-2-methyl-4-pyridyl]pyrazolo[1,5-a]pyridin-2-yl]cyclopropanecarboxamide]
0.00115 | Cc1cc(-c2ccn3nc(NC(=O)C4CC4)cc3c2)c(O[C@H](CN)c2ccccc2)cn1 [Example 466, N-[5-[5-[(1S)-2-amino-1-phenyl-ethoxy]-2-methyl-4-pyridyl]pyrazolo[1,5-a]pyridin-2-yl]cyclopropanecarboxamide]
